Here are results for 9 compounds from patent US5493007A, “Platelet aggregation inhibitors having high specificity for GPIIBIIIA” (Genentech, Inc., priority 1994, dated 1996).

In series [1] the test system is New Zealand White rabbits. Put plainly: Rabbit cutaneous bleeding time (CBT). The following applies: for Rabbit BT Ratio: Example 1, at the % P.A. inhibition given.
Description: Unanesthetized male New Zealand White rabbits (2.5-3.5 kg) are placed in a standard rabbit restrainer. Ears are shaved and a 20 G Teflon catheter with flowswitch (Viggo) is placed in the medial artery, flushed with saline and locked with 1 ml of heparinized saline (10 m/ml). A 22 G catheter (Abbott) fitted with an injection cap (Medex) is placed in the marginal vein of the same ear. Saline or a GP IIb IIIa receptor antagonist, at a concentration of 1 to 3 mg/ml, is infused via the venous catheter. At time 0, 41% of the dose is given as a bolus over 2 minutes. The remainder is continuously infused over the following 60 minutes. Blood samples (3.2 ml) are collected into syringes without needles via the arterial catheter at -10, -5, 10, 45, and 60 minutes. The first 0.5 ml is discarded and the following 2.7 ml is collected directly into a syringe containing 0.3 ml of 3.8% sodium citrate. The sample is divided into 1.5 ml aliquots and centrifuged at room temperature for 5 seconds at 12,000 G. The resulting platelet rich plasma (PRP) is used to measure ex-vivo platelet aggregation (XPA). At -10 and 60 minutes an additional 1 cml sample is drawn for an automated blood count (Baker instruments). Catheters are flushed and locked after every sample.
CBT is measured at -10, -5, 10, and 45 minutes on the opposite ear, using an automated incision-making instrument (Surgicutt®, ITD). An incision (5mm×1 mm deep) is made on the dorsal surface of the ear at sites not supplied by major blood vessels. Blood is blotted away with absorbent paper placed near the incision site, every 2 to 15 seconds, to a maximum of 15 minutes. Cessation of bleeding is defined as no blood forming at the incision site for 15 seconds. The range of duplicate CBT in 40 normal rabbits was 0.88 to 3.38 minutes.
The test system of series [2] is platelet rich plasma (PRP). Put plainly: Rabbit ex-vivo platelet aggregation (XPA), ADP-induced. The series is classed as in vivo. The following applies: Example 1. The procedure: Catheters are flushed and locked after every sample.
[…] of PRP is placed in a disposable glass cuvette with a stir bar. The cuvette is placed in the temperature regulated light path of a light transmittance aggregometer (Chrono-log) and equilibrated to a 37° C. Baseline transmittance is recorded for 30 seconds, after which […] of ADP (1 mM) is added and the change in transmittance recorded. The maximum change from baseline (dT) is noted for each sample. The extent of inhibition of XPA that is produced by an inhibitor is calculated for each animal as follows: Mean dTs are calculated for the pre and post infusion values, and then, percent inhibition is calculated as (1-dt (post)/ddt (pre))×100.

Series [3] deals with vitronectin receptor (Homo sapiens, UniProt P05106+P06756). The following applies: cited from earlier work.
Series [4] concerns the target T1, Fibronectin Receptor (Homo sapiens, UniProt P05556+P08648). The following applies: Pierschbacher et al. 1987; cited from earlier work.
For series [5], the system named is New Zealand White rabbits. Put plainly: Rabbit peripheral blood flow and CBT, laser Doppler series. The series is classed as in vivo. The following applies: 1 mg intravenously over 2 minutes at 60 minutes, within 5 minutes, laser doppler probe. The protocol: In an alternative series of experiments, (Table 2 ) PBF was measured quantitatively with a laser Doppler flow probe (Perimed). The probe was positioned securely over the vascular bed of one ear and flow monitored continuously. Each inhibitor was infused and CBT measured in the opposing ear. No arterial catheter was placed for blood sampling, consequently XPA was not measured in these animals.
As a positive control, epinephrine was infused intravenously (1 mg over 2 minutes.) at 60 minutes. The resulting vasoconstriction reduced flow to near 0 flow units within 5 minutes.

Series [6] concerns the target T2, GP IIb IIIa (Homo sapiens, UniProt P05106+P08514). The following applies: Kirchofer et al. 1990; versus αvβ3 and α5β1; cited from earlier work.
Series [7] has as its target T3, Vitronectin Receptor (αvβ3) (Homo sapiens, UniProt P05106+P06756).
T3 construct: Human vitronection receptor (VnR) is purified from human placenta; from tissue; host or cells: human placenta
Put plainly: Human Vitronectin-Vitronectin Receptor (αvβ3) ELISA Assay. The series is classed as binding. The following applies: purified human αvβ3, vitronectin-coated plates; read-out: ELISA IC50 Vitronectin VnR. From the text: Human vitronectin (Vn) is isolated from human plasma and purified by affinity chromatography by the method of Yatohgo et. al., (Cell Structure and Function 13:281-292 [1988]).
Human vitronection receptor (VnR) is purified from human placenta by the method of Pytela et al., (Methods Enzymol., 144:475 [1987]). Alternatively the αvβ3 receptor can be purified from some cell lines (e.g., human embryonic kidney 293 cells) transfected with DNA sequences for both the αv and β3 subunits. The subunits are purified by employing octylglucoside extraction followed by Con-A, Heparin-Sepharose, and S-300 Chromatography.
Anti-GP IIb IIIa monoclonal antibodies specific for human GP IIIa are prepared by the method of Newman et al. (Blood, 65:227-232 [1985]), or a similar procedure. This mouse Mab is specific for the β3 subunit of the vitronectin receptor.
Rabbit Fab 2 anti-mouse Fc fragment horse radish peroxidase conjugate (anti-MuFc HRP) is obtained from PelFreeze (cat. no. 715305-1).
Maxisorp microtiter plates are coated with 2 μg/ml human vitronectin dissolved in PBS ([…]) and stored overnight at 4° C. The plates are washed two times with PBS-0.05% Tween-20 (wash buffer) and blocked by incubating with about 150 μl/well of assay buffer (1%, BSA [RIA grade or better] in 50 mM Tris-HCl, 100 mM NaCl, 1 mM MgCl2, CaCl2, MnCl2 pH 7.4) for 60 minutes. Dilutions of standards are prepared and putative inhibitors (Table 3) are dissolved in assay buffer. The blocked plates are emptied and 25 μl/well of inhibitor or standard solution is added to each well. Twenty-five μl of a 30 μg/ml solution of purified αvβ3 in assay buffer is pipetted into the coated plate. The final concentration of receptor in the assay well is about 15 μg/ml. The plate is incubated on a shaker for 60 minutes. Meanwhile, for each microtite plate, 6 ml buffer solution containing 1.5 μg/ml of mouse monoclonal antibody specific for β3 is prepared. To this solution is added μl of the secondary antibody, which is anti-mouse-Fc-HRP antibody conjugate. For example, for one plate, prepare 6 ml of a 1.5 μg/ml mouse Mab solution to which is added 1 μl of anti-mouse-Fc-HRP antibody stock, (this represents a 1:6000 dilution of the antibody - HRP conjugate). This mixture is allowed to incubate during the receptor-inhibitor incubation. The assay plates are washed 4 times with PBS-Tween and 50 μl/well of the antibody mixture is then pipetted into the plate for a 60 minute incubation. The plate is washed 4 times and the color reaction is developed with 50 μl/well of 0.67 mg/ml o-phenyldiamine in PBS containing 0.012% H2 O2. Alternatively, 16 mM citric acid, 50 mM Na2 PO4 at pH 5.0 can be used as a substrate buffer. The reaction is stopped with 50 μl/well 1M H2 SO4. The plates are read at 492-405 nm and the data analyzed by four-parameter fit.

The target of series [8] is human platelet rich plasma (PRP) (Homo sapiens, UniProt P05106+P08514). The series is described as follows: In Vitro Human Platelet Aggregation Assay. It is filed as cell-based. The following applies: human PRP; read-out: Human Platelet Aggregation IC50. The protocol:
Platelet aggregation assays are performed in human platelet rich plasma (PRP). Fifty milliliters of whole human blood (9 parts) is drawn on 3.6% sodium citrate (1 part) from a donor who has not taken aspirin or related medications for at least two weeks. The blood is centrifuged at 160×g for 10 minutes at 22° C. and allowed to stand for 5 minutes after which the PRP is decanted. Platelet poor plasma (PPP) is isolated from the remaining blood after centrifugation at 2000×g for 25 minutes. The platelet count of the PRP is diluted to about 300,000 platelets per microliter with PPP.
A 225 μl aliquot of PRP plus 25 μl of either a dilution of the test inhibitor sample or a control (PBS) is incubated for 5 minutes in a Chrono-log Whole Blood Aggregometer at 25° C. An aggregating agent (collagen, 1 μg/ml; U46619, 100 ng/ml; or ADP, 17 μM) is added and the transmission is recorded.

The target in series [9] is T1, Fibronectin Receptor. Put plainly: Human Fibronectin-Fibronectin Receptor ELISA Assay. It is filed as binding. The arrangement: octylglucoside (OG) extracted human placenta; from tissue; host or cells: human placenta. The following applies: human placenta fibronectin receptor, fibronectin-coated plates; read-out: ELISA IC50 Fibronectin FnR. The protocol:
Fibronectin receptor is purified according to the procedures of Pytela et al., (Methods Enzymol. 144:475 […]). Briefly, fibronectin receptor is purified employing an Arg-Gly-Asp affinity chromatography from (100 mM) octylglucoside (OG) extracted human placenta. The OG extract is filtered over Sepharose 6B GRGDSPK column. The column is washed three times with three column volumes of Tris-buffered saline (TBS) TBS, 1 mM CaCl2, and 25 mM OG. The receptor is eluted with TBS, 20 mM EDTA, and 25 mM Octyl thioglucoside, and is stored in 1 mM CaCl2, 1 mM MgCl2, at -80° C.
Microtiter plates are coated with 110 μl human fibronectin (at 2 μg/ml) in TBS. Plates are washed three times with TBS containing 0.05% Tween 20. Test inhibitors are then added after washing in 10 microliter aliquots. The fibronectin receptor is added in 2-fold serial dilutions with TBS containing 20 mM octyl glucoside and 2 mM MnCl2. Plates are incubated three hours at room temperature, and washed with 200 μl TBS-Tween 20 buffer. 100 μl of affinity-purffied rabbit anti-human fibronectin receptor antibody is added to the wells and the plates are incubated two hours, washed twice with TBS-Tween and once with distilled water. Affinity-purified goat anti-rabbit IgG conjugated to horseradish peroxidase (100 μl) is added to each well followed by incubation for 60 minutes at room temperature. Plates are again washed twice with TBS-Tween and distilled water. 100 μl of substrate mixture (10 mg o-phenylenediamine in 25 ml 0.1M citrate-phosphate buffer, pH 5.0 6 μ30% H2 O2) is added to the plates and allowed to develop. The development process is stopped by adding 50 μl of 4N H2 SO4 to each well and read at […].

Series [10] has as its target T2, GP IIb IIIa. Put plainly: GP IIb IIIa -von Willebrand factor (vWF) ELISA Assay. The following applies: GP IIb IIIa-coated plates, vWF; read-out: ELISA IC50 GPIIb IIIa vWF. Further details: GP IIb IIIa, prepared by the method of Fitzgerald et al; from tissue. The series is classed as binding. The protocol: Microtiter plates are coated with 1.0 μg/ml GP IIb IIIa, prepared by the method of Fitzgerald et al., (Anal. Biochem. 151:169-177 [1985]) and allowed to incubate overnight in coat buffer. The plates are then washed three times in wash buffer (0.05% Tween 20 in PBS) and 150 μl of assay buffer is added and allowed to incubate for 1-2 hours at room temperature on plate shaker. The plates are washed three times and 50 μl of 2x inhibitor in assay buffer (Assay buffer: 0.5% BSA/50 mM Tris, 100 mM NaCl, 1.0 mM CaCl2, 1.0mM MgCl2, 1.0 mM MnCl2; coat buffer is the same but without BSA) is added. Fifty μl of 4.0 μg/ml vWF (prepared as described by Ledford et al., Thrombosis and Haemostasis, 64(4): 569-575 [1990]) in assay buffer is then added and allowed to incubate for one hour at room temperature on plate-shaker. The plates are washed three times and the antibody mixture is added (1:5000 of mouse anti-vWF and 1:5000 of rabbit-anti-mouse-Fc-HRP, both commercially available) in assay buffer and incubated for 1 hour at room temperature on plate-shaker. Plates are again washed three times and 100 μl of substrate solution (10 mg OPD, 6.5 μl H2 O2, 15 ml phosphate citrate buffer) is added and incubated at room temperature. The color change of OPD/H2 O2 reagent is read at 492 nm with a 405 nm reference wavelength on the filter photometer.

Where a SMILES comes first, the peptide text is derived from it. Bridges are numbered along the chain shown (N, C = ends). [ ]: non-standard residue; d: D form. Pen = CC(C)(S)[C@H](N)C(=O)O

Chain of vitronectin receptor (P06756 31-889 limits assumed): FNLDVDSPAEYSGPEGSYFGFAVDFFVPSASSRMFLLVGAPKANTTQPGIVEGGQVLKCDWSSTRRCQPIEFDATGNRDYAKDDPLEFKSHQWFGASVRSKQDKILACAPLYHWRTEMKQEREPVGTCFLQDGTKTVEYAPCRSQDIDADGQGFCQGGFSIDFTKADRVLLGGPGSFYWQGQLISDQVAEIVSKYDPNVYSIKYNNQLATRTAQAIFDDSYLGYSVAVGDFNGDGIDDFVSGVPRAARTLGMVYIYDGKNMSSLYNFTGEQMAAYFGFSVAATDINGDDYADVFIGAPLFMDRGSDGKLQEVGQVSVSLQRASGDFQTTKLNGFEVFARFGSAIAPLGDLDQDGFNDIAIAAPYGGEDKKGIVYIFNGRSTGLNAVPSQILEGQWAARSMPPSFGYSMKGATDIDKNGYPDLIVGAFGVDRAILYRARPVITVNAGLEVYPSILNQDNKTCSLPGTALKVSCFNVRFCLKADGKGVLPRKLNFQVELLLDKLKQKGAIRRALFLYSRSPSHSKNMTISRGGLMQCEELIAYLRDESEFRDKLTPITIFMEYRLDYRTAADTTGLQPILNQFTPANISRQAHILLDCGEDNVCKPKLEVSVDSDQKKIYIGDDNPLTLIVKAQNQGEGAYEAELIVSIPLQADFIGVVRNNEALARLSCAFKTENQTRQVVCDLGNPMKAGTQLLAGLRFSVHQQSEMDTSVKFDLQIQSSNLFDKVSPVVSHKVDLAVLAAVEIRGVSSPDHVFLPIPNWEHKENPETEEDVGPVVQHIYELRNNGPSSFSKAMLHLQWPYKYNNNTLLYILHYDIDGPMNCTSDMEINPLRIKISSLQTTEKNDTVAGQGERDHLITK
Chain of vitronectin receptor (P06756 891-1048 partner limits assumed): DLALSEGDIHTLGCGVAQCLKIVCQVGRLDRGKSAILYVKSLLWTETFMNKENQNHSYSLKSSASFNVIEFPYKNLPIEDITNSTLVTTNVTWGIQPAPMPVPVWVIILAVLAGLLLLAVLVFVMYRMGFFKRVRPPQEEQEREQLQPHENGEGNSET
Chain of vitronectin receptor (P05106 27-788): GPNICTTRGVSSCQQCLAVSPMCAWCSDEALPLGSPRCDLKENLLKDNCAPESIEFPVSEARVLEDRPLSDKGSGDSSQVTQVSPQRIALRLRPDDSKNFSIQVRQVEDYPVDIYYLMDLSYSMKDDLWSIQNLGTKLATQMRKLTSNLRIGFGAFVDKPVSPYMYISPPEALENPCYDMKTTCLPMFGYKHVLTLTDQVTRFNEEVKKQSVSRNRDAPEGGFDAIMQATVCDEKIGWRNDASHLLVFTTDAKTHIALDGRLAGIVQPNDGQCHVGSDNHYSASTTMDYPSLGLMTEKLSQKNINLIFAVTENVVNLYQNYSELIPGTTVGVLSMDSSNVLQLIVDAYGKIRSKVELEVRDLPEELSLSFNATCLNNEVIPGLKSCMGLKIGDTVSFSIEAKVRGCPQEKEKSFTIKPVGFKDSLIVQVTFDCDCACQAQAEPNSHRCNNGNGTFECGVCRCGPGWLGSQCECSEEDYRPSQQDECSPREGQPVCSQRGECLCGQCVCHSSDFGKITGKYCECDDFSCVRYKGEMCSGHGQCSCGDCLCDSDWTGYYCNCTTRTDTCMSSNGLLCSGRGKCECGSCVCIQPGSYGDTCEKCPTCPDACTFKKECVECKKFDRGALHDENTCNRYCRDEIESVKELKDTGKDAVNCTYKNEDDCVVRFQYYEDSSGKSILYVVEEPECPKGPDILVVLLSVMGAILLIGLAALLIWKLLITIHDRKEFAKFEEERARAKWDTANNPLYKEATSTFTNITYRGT
T1 sequence (P08648 42-894 limits assumed): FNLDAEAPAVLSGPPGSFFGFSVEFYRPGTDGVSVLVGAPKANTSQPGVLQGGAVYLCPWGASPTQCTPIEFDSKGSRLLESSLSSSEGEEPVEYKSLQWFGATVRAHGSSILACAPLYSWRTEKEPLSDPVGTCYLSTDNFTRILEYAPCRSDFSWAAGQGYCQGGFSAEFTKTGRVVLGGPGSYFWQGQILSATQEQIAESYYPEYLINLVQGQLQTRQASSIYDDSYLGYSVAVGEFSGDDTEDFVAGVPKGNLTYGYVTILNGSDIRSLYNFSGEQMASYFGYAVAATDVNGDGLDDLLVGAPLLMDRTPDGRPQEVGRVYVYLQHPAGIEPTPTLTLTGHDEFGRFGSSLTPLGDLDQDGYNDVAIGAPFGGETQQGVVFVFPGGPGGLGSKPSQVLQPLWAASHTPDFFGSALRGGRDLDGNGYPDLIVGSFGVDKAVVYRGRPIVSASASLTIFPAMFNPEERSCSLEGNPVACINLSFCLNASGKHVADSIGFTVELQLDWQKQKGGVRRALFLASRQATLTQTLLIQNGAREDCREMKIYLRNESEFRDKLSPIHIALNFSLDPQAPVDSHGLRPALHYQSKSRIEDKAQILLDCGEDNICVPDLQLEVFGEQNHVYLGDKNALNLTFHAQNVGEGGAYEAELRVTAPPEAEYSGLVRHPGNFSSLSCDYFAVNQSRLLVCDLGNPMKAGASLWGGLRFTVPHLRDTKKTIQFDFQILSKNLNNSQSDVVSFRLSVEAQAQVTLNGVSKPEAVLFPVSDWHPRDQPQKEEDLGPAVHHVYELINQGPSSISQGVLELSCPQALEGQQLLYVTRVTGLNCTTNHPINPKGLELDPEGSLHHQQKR
T1 sequence (P08648 895-1049 partner limits assumed): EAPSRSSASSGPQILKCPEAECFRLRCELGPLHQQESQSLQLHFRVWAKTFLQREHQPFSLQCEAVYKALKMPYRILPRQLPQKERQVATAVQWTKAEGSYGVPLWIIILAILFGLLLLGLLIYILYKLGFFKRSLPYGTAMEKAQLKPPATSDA
T1 sequence (P05556 21-798): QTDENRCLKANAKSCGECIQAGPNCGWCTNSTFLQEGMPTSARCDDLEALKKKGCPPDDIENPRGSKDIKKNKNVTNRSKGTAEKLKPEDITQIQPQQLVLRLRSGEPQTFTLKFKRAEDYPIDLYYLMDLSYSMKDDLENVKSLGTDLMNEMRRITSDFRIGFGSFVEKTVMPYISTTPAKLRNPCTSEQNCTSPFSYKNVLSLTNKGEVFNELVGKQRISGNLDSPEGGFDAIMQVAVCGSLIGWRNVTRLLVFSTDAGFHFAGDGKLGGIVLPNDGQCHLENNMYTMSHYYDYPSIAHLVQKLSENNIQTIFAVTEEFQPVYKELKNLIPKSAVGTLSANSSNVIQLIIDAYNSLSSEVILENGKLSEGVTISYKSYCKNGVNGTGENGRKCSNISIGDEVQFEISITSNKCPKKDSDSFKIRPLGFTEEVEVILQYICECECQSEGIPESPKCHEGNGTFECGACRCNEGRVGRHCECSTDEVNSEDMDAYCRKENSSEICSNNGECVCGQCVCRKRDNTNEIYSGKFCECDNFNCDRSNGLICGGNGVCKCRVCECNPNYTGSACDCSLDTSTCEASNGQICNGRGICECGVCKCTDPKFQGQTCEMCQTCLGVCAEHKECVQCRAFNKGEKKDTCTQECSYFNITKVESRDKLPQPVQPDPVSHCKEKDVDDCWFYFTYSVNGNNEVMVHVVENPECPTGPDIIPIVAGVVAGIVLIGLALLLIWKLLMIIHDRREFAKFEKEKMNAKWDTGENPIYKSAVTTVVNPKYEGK
T3 sequence (P06756 31-889 limits assumed): as the sequence (P06756 31-889 limits assumed) above
T3 sequence (P06756 891-1048 partner limits assumed): as the sequence (P06756 891-1048 partner limits assumed) above
T3 sequence (P05106 27-788): as the sequence (P05106 27-788) above

With `N=C(N)NCCC[C@@H]1NC(=O)[C@@H](Cc2ccc(O)cc2)NC(=O)C[S+]([O-])C[C@@H](C(=O)N[C@H](CCCNC(=N)N)C(N)=O)NC(=O)[C@H](CC(=O)O)NC(=O)CNC1=O` (single isomer, unassigned) [7/34], the “Rabbit BT Ratio” value in series [1] (rabbit) was 0.94. Besides, the “Rabbit % P.A. Inhibition (ex vivo)” value in series [2] is reported as 64%.
Take `N=C(N)NCCC[C@@H]1NC(=O)[C@@H](Cc2ccc(O)c(Br)c2)NC(=O)C[S+]([O-])C[C@@H](C(=O)N[C@@H](CCCCN)C(N)=O)NC(=O)[C@H](CC(=O)O)NC(=O)CNC1=O` (single isomer, unassigned) [7/36]: the “Rabbit BT Ratio” value in [1] (rabbit) is 0.77. Further, the “Rabbit % P.A. Inhibition (ex vivo)” value in series [2] is 91%.
In the same order, the values of `N=C(N)NCCC[C@H](NC(=O)[C@@H]1C[S+]([O-])CC(=O)N[C@H](Cc2ccc(O)cc2)C(=O)N[C@@H](CCCNC(=N)N)C(=O)NCC(=O)N[C@@H](CC(=O)O)C(=O)N1)C(N)=O` (single isomer, unassigned) [7/32] are 1.17 and 99%.
On to Gly-Pen-Gly-Arg-Gly-Asp-Ser-Pro-Cys-Ala, for which the “effectiveness at inhibiting the vitronectin-vitronectin receptor interaction, cyclized versus uncyclized peptide” value in series [3] (Pierschbacher et al. 1987) is reported as 10 times. For the same compound, the “inhibition of the fibronectin-fibronectin receptor interaction, in words” value in series [4] is “ineffective”.
Regarding cyclic-1,7-VRGDSPDG, the “integrin selectivity, in words” value in [3] (Kirchofer et al. 1990) was “preferentially inhibited αvβ3 (vitronectin receptor) binding to vitronectin”.
With `CC1(C)SCC(=O)N[C@H](Cc2ccc(O)cc2)C(=O)N[C@@H](CCCCN)C(=O)NCC(=O)N[C@@H](CC(=O)O)C(=O)N[C@@H]1C(=O)O` [7/47] ({CH2CO}-[dY]KGD[Pen]-OH; thioether N-5), the “cutaneous bleeding time, result in words” value in series [1] is “prolongation of bleeding time in vivo in both the rabbit and dog model”. Also, in series [1] (rabbit), the “Rabbit BT Ratio” value amounted to 8.57. Besides, the “increase of cutaneous bleeding time compared to the undosed animal” value in series [1] (rabbit, dose sufficient to achieve about 97% inhibition of platelet aggregation) was found to be 8.6 times. The “Rabbit % P.A. Inhibition (ex vivo)” value in series [2] is given as 96%.
For `CNC[C@H](O)c1ccc(O)c(O)c1` [epinephrine], the “peripheral blood flow after positive control” value in series [5] is reported as approximately 0 flow units.
Take cyclic-2,10-GPenGHRGDLRCA: the “integrin selectivity, in words” value in series [6] is recorded as “preferentially inhibits the binding of GP IIb IIIa to fibrinogen”.
For the compound `NCCCC[C@@H]1NC(=O)[C@@H](Cc2ccc(O)cc2)NC(=O)C(c2ccccc2)SC[C@@H](C(=O)O)NC(=O)[C@H](CC(=O)O)NC(=O)CNC1=O` (single isomer, unassigned) [7/45, cyclo-S-phenylacetyl-dTyr--Lys--Gly--Asp--Cys--OH], the IC50 in series [7] is more than 20000 nM; in series [8], 220 nM; in series [9], more than 10000 nM; in series [10], 1 nM. The “Rabbit BT Ratio” value in series [1] (rabbit) was found to be 4.47.
